The conditions of data set [1]: in vivo.
The nature of data set [2]: Water solubility of delivery agent.

For `O=C(O)CCCCCCCCCNC(=O)c1ccccc1O` [SNAD, N-(10-[2-hydroxybenzoyl]amino)decanoic acid], the “absorbed by the gastro-intestinal tract” value in data set [1] was “greater than 90%”.
With `O=C(O)CCCCCCCNC(=O)c1cc(Cl)ccc1O` [5 CNAC, N-(5-chlorosalicyloyl)-8-aminocaprylic acid], the water solubility result in data set [2] is “very water soluble”.
